{
  "source": "ChEMBL document CHEMBL1127100",
  "about": "“Structure-activity relationships of a series of glycine antagonists related to 5,7-dichlorokynurenic acid and 3-(2-carboxy-6-chloroindol-3-yl)acetic acid” (Bioorg Med Chem Lett, 1993)",
  "key": {"[1]": {"target": "Glutamate NMDA receptor", "test": "Tested for the ability to inhibit [3H]MK-801 binding to NMDA receptor of rat cortical membranes in the presence of glutamate (1 uM)"}, "[2]": {"target": "Glutamate receptor ionotropic, NMDA 1 (Rattus norvegicus, UniProt P35439)", "test": "Tested for the ability to displace [3H]glycine, by greater than 50%, from NMDA receptor of rat cortical membranes at a dose of 10 uM"}},
  "note": "pIC50, pKi: −log10 of the molar value.",
  "data": [
    {"smiles": "O=C(O)CCc1c(C(=O)O)nc2cc(Cl)cc(Cl)c2c1O", "values": [
      {"measurement": "pIC50", "setting": "[1]", "result": 3.99},
      {"measurement": "pKi", "setting": "[2]", "result": 5.15}
    ]},
    {"smiles": "O=C(O)Cc1c(C(=O)O)nc2ccccc2c1O", "values": [
      {"measurement": "pIC50", "setting": "[1]", "result": 4.08},
      {"measurement": "pKi", "setting": "[2]", "result": 4.83}
    ]},
    {"smiles": "O=C(O)Cc1cc2ccccc2nc1C(=O)O", "values": [
      {"measurement": "pIC50", "setting": "[1]", "result": "< 4.00"},
      {"measurement": "pKi", "setting": "[2]", "result": "< 4.00"}
    ]},
    {"smiles": "O=C(O)c1cc2c(Cl)cc(Cl)cc2[nH]1", "values": [
      {"measurement": "pIC50", "setting": "[1]", "result": 5.23},
      {"measurement": "pKi", "setting": "[2]", "result": 6.01}
    ]},
    {"smiles": "O=C(O)Cc1c(C(=O)O)[nH]c2cc(Cl)cc(Cl)c12", "values": [
      {"measurement": "pIC50", "setting": "[1]", "result": 5.48},
      {"measurement": "pKi", "setting": "[2]", "result": 6.47}
    ]},
    {"smiles": "O=C(O)CCc1c(C(=O)O)[nH]c2cc(Cl)cc(Cl)c12", "values": [
      {"measurement": "pKi", "setting": "[2]", "result": 6.85}
    ]},
    {"smiles": "O=C(O)Cc1c(C(=O)O)nc2cc(Cl)cc(Cl)c2c1O", "values": [
      {"measurement": "pIC50", "setting": "[1]", "result": 5.45},
      {"measurement": "pKi", "setting": "[2]", "result": 6.19}
    ]},
    {"smiles": "O=C(O)c1cc(O)c2c(Cl)cc(Cl)cc2n1", "values": [
      {"measurement": "pIC50", "setting": "[1]", "result": 6.07}
    ]}
  ]
}
